Laboratory results as given in patent US10987319B2, “TFEB activator C1 ameliorates app and tau pathology and rescues cognitive deficits in neurodegenerative diseases” (Hong Kong Baptist University, priority 2018, dated 2021).

How the values were obtained:
Format in all cases: in vivo
5×FAD mice = test: Contextual fear conditioning
Protocol: Male 5×FAD mice were purchased from Jackson laboratories (Stock number 006554) and maintained at 23±2° C. temperature, 60±15% relative humidity with free access to food and water ad libitum. 5×FAD male mice were inbred with wild-type (WT, C57/BL6) female mice to produce heterozygous offspring. Offspring were genotyped to select 5×FAD (APP KM670/671NL (Swedish), APP I716V (Florida), APP V717I (London), PSEN1 M146L (A>C), PSEN1 L286V) gene mutations mice. Two months old WT and 5×FAD mice (male and female, n=10-14 per group) were treated daily with vehicle (1% sodium carbonyl methylcellulose [CMC-Na; Sigma-Aldrich, C5678]), curcumin analogue C1 (5 mg/kg, 10 mg/kg) or curcumin (50 mg/kg; Sigma-Aldrich, 08511) suspended in 1% CMC-Na by oral gavage for 4 months.
Contextual fear conditioning (CFC) was used to evaluate the fear memory reconsolidation of 5×FAD mice after treatment. The experiment was conducted 30 min after the drug treatment in ANY maze fear conditioning system under licensed ANY maze tracking system connected to a Windows XP computer. A digital camera was installed on each chamber and signals were sent to the computer for analysis. The experiments were conducted in two sound proof chambers. All the experiments were conducted with continuous 40 units of white noise and 40 lux white light. During training, mice were allowed to explore the platform for 2.5 min and then received 3 repeated footshock cycles (30 s) at 30 s intervals, each started with a cue tone (28 s, 1500 Hz) and ended by a footshock ([…], 2 s). On the second day the mice were allowed to explore the platform for 3 min followed by a cue tone (30 s, 1500 Hz) without footshock, and the freezing time was recorded. Contextual fear memory formation and the subsequent remote memory stabilization were evaluated by scoring freezing index (the absence of all but respiratory movement).

[1] = system: APP, APP CTFs, Aβ, LC3-II; test: Western blotting of brain tissue, 5×FAD mice
Protocol: 5×FAD male mice were inbred with wild-type (WT, C57/BL6) female mice to produce heterozygous offspring. Offspring were genotyped to select 5×FAD (APP KM670/671NL (Swedish), APP I716V (Florida), APP V717I (London), PSEN1 M146L (A>C), PSEN1 L286V) gene mutations mice.
Brain tissues were lysed with RIPA buffer (TBS with 1% NP-40, 1% sodium deoxycholic acid, 0.1% SDS, and protease phosphatase inhibitor cocktails) and centrifuged at 15,000 RPM for 30 min. Supernatant is collected and the pellets were further lysed with 2% SDS in RIPA buffer. Protein concentration was estimated by BCA assay. […] Protein chemiluminescence signal was detected by using ECL kit and quantified using ImageJ software.

3×Tg mice = test: Open-field test
Protocol: Homozygous 3×Tg mice (APP KM670/671NL (Swedish), MAPT P301L, PSEN1 M146V) were produced in Hong Kong Baptist University animal house and maintained at 23±2° C. temperature, 60±15% relative humidity with free access to food and water ad libitum. Seven months old WT (129/SvJ, n=6 for male mice; n=10 for female mice) and 3×Tg mice (n=6 for male mice; n=10 for female mice) were treated daily with vehicle (1% CMC-Na; Sigma-Aldrich, C5678]), curcumin analogue C1 (2.5 mg/kg, 5 mg/kg, 10 mg/kg) or curcumin (50 mg/kg; Sigma-Aldrich, 08511) suspended in 1% CMC-Na by oral gavage for 7 months. 3×Tg mice were treated with the indicated compounds for 7 months and then the open-field test was performed to evaluate the exploratory behavior in novel environment. The experiment was conducted 30 min after last dosing time. Mice placed in the center of an empty open field (25 cm×25 cm) were allowed to explore the environment for 5 min without any external disturbance. Ethnovision XT software was used to measure the patterns of movement, time spent in the center and margin, velocity, distance traveled as indicators of agility and exploration.

Aβ plaques = test: Immunohistochemistry of Aβ plaques (4G8 antibody), 3×Tg mice; details: 10 mg/kg oral 7 months
Protocol: Homozygous 3×Tg mice (APP KM670/671NL (Swedish), MAPT P301L, PSEN1 M146V) were produced in Hong Kong Baptist University animal house and maintained at 23±2° C. temperature, 60±15% relative humidity with free access to food and water ad libitum.
Brain sections (30 μm) were cut on a microtome and stored at 4° C. in PBS+0.1% sodium azide. Sections were permeabilized for 10 min with cold PBS containing 0.5% Triton X-100 and blocked with 3% bovine serum albumin for 1 h at room temperature.

[2] = 5×FAD mice, male and female, 10 mg/kg oral 4 months

COc1ccccc1/C=C/C(=O)/C=C/c1ccccc1OC [Compound C1, 1,5-bis(2-methoxyphenyl)penta-1,4-dien-3-one]
freezing index (memory reconsolidation) vs vehicle (5×FAD mice; 10 mg/kg oral daily 4 months, P<0.001): significant memory reconsolidation | memory improvement compared with curcumin (5×FAD mice; C1 10 mg/kg vs curcumin 50 mg/kg): better memory improvement than curcumin | LC3-II levels in brain (autophagy enhancement) [1, 2]: increase in LC3-II levels | levels of A3 in brain [1, 2]: significantly reduced | levels of APP CTFs in brain [1, 2]: significantly reduced | Fl-APP levels in brain ([1]; female 5×FAD mice, oral 4 months): reduced Fl-APP levels | time spent in the center vs vehicle (3×Tg mice; 3×Tg mice, 2.5, 5, 10 mg/kg oral 7 months): dose-dependently decreased | exploratory behavior (3×Tg mice; 3×Tg mice, high dose 10 mg/kg oral 7 months, P<0.001): almost recovered the exploratory behavior to the levels of WT mice | hippocampal Aβ plaque load (Aβ plaques): reduces hippocampal Aβ plaque load
